This is an account of results in patent US12421235B2, “Bridged tricyclic carbamoylpyridone compounds and uses thereof” (Gilead Sciences, Inc., priority 2020, dated 2025).

Like-named read-outs stand apart in the source and are kept apart here.

Data set [1] relates to HIV-1 (IIIB) in MT-4 cells. In words: HIV MT-4 antiviral assay. It is filed as cell-based. The following applies: Human immunodeficiency virus 1, MT4, 120 h, 5 days, Cell Titer Glo. The essentials: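 MT-4 cells infected with HIV-1 IIIB (1:250 dilution of concentrated stock) were incubated 5 days at 37 °C with compound in 1:3 serial dilutions in RPMI/10% FBS. Viability was read by CellTiter-Glo luminescence. EC50 was the concentration causing a 50% decrease in luminescence signal, from sigmoidal dose-response fits.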
On the technique in general: Cellular ATP, detected with luciferase, serves as a proxy for viable cell number.

Data set [2] is described as follows: High throughput microsomal stability assay (human liver microsomes). The conditions noted are these: for HLM stability: human liver microsomes, 1 uM compound, NADPH + UDPGA cofactors, 37 C. It is filed as in vitro ADME. A digest of the protocol: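 Compounds at 1 uM final, incubated at 37° C. with liver microsomes (2 mg/ml stock, alamethicin-treated) in pH 7.4 phosphate plus NADPH-regenerating/UDPGA cofactors; samples taken 0–70 min. Parent/IS peak-area ratios read by RapidFire QToF MS; half-life from linear fit of initial log decay, scaled to intrinsic clearance.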
On the technique in general: Liver microsomes are vesicles of endoplasmic reticulum, rich in cytochrome P450 enzymes.

Data set [3] in a line: Cytotoxicity assay in MT-4 cells. The data set is classed as cell-based. The conditions noted are these: human, uninfected MT-4 cells, Cell Titer Glo. A digest of the protocol: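 Uninfected MT-4 cells were incubated with 1:3 serially diluted compound in RPMI/10% FBS for 5 days at 37° C. Viability was read by CellTiter-Glo luminescence, with 10 μM puromycin as the baseline cytotoxicity control. Values are the concentration giving a 50% decrease in luminescence, from sigmoidal dose-response fits.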

For data set [4], the system named is pLai RLuc reporter virus in MT-4 cells. In words: HIV MT-4 serum shift antiviral reporter assay. The conditions noted are these: Human immunodeficiency virus 1, MT4, 72 h, read-out: RLUC CCM. The data set is classed as cell-based. The essentials:
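MT-4 cells pre-infected 2 h with reporter virus, then dosed (1:3 dilutions) in medium with 10% FBS alone or plus 50% human serum; 72 h at 37 °C. Renilla luminescence read; EC50 = 50% signal decrease by sigmoidal fit, serum shift = EC50(HS)/EC50(no HS).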
In general terms: Reporter assays use an easily measured gene product as a stand-in for the process of interest.

What is called CC50 is the concentration that lowers cell viability or growth by half. Low readings indicate harm at low concentration, high ones better tolerance by the cells. For the molecule `C[C@H]1CC[C@](C)(O)[C@H]2CN1C(=O)c1c(O)c(=O)c(C(=O)NCc3ccc(F)cc3F)cn12` (single isomer, unassigned) [Example 12], the EC50 in data set [1] amounted to 1.4 nM; in data set [4] it was 0.61 nM. For the same molecule, the HLM stability in data set [2] was found to be 0.15 L/h/kg. For the same molecule, in data set [2] (relative to compound F), the “MS Cl improvement” value was 3.3 times relative to compound F. In data set [3], this molecule came in with a CC50 at 5 days of 41300 nM.
On to `C[C@H]1C=C[C@](C)(O)[C@H]2CN1C(=O)c1c(O)c(=O)c(C(=O)NCc3c(F)cc(F)cc3F)cn12` [Example 15, (1R,10S,13S)-6,13-dihydroxy-10,13-dimethyl-5,8-dioxo-N-[(2,4,6-trifluorophenyl)methyl]-2,9-diazatricyclo[7.4.1.02,7]tetradeca-3,6,11-triene-4-carboxamide], for which the EC50 in data set [1] was 7.9 nM; in data set [4], 1.64 nM. The HLM stability in data set [2] was 0.19 L/h/kg. The molecule further returned a CC50 at 5 days in data set [3] of 28400 nM.
Molecule `CO[C@@H]1C=C[C@H](C)N2C[C@H]1n1cc(C(=O)NCc3ccc(F)cc3F)c(=O)c(O)c1C2=O` [Example 7, (3S,6R,7R)—N-(2,4-difluorobenzyl)-12-hydroxy-6-methoxy-3-methyl-1,11-dioxo-1,6,7,11-tetrahydro-3H-2,7-methanopyrido[1,2-a][1,4]diazonine-10-carboxamide] had an EC50 in data set [1] of 1.2 nM. In data set [2], the “MS Cl improvement” value is reported as 2.0 times relative to compound E and the HLM stability was 0.20 L/h/kg. Moreover, in data set [3], the CC50 at 5 days is 9910 nM. In data set [4], the EC50 came to 0.29 nM.
